Measured values reported in ChEMBL document CHEMBL1121984 (J Med Chem, 1982).
Calls of active or inactive are those of the source. The calls are words filed in the database; no cut-off is given here.

Legend:
Felis catus [1] = experiment: Inhibition of the positive chronotropic effect of stimulation of the cardioaccelerator nerve in the anesthetized cat.; type: functional, organism-based
Dopamine receptor [2] = target: T1, Dopamine receptor (Bos taurus, UniProt Q95136+P20288); experiment: Inhibitory binding activity against dopamine receptor using [3H]ADTN as the radioligand in striatal tissue of calf brain.; type: tissue-based, Striatum
Dopamine receptor [3] = target: T1, Dopamine receptor; experiment: Inhibitory binding activity against dopamine receptor using [3H]spiperone as the radioligand in striatal tissue of calf brain.; type: tissue-based, Striatum
Felis catus [4] = experiment: The compounds were evaluated for their ability to inhibit the positive chronotropic effect of stimulation of the cardioaccelerator nerve in the anesthetized cat; type: functional; conditions: read-out: ID50 (the source's name)
Felis catus [5] = species: Felis catus; experiment: Inhibition of positive chronotropic effect of the cardioaccelerator was determined; type: functional; conditions: read-out: ID50 (the source's name)
Felis catus [6] = species: Felis catus; experiment: The compound was evaluated for its ability to inhibit the positive chronotropic effect of the cardioaccelerator; type: functional; conditions: read-out: ID50 (the source's name)
[7] = The compound was tested for its emetic activity in dog, activity expressed as potency ratio.; type: functional
Dopamine receptor [8] = target: T1, Dopamine receptor; experiment: Inhibitory binding activity against dopamine receptor using [3H]ADTN as the radioligand in striatal tissue of calf brain; type: tissue-based, Striatum
Dopamine receptor [9] = target: T1, Dopamine receptor; experiment: Inhibitory binding activity against dopamine receptor using [3H]spiperone as the radioligand in striatal tissue of calf brain; type: tissue-based, Striatum
Canis familiaris = experiment: Effective dose for emetic activity after administration to dog; type: functional; conditions: Canis lupus familiaris

## COc1cc2c(cc1OC)CC(N(C)C(C)C)C2
Felis catus [1]
  ID50: inactive

## CN1C[C@H](CC#N)C[C@@H]2c3cccc4[nH]c(Cl)c(c34)C[C@H]21 [LERGOTRILE]
Dopamine receptor [2]
  IC50: 4.5 µM
Dopamine receptor [3]
  IC50: 23.7 µM
Felis catus [4]
  ED50: 0.27 µmol/kg

## Br.CCCN(CCC)C1Cc2cc(O)c(O)cc2C1
Felis catus [5]
  ED50: > 3 µmol/kg
Dopamine receptor [2]
  IC50: 412 µM
Dopamine receptor [3]
  IC50: 17.6 µM

## NC1Cc2cc(O)c(O)cc2C1
Felis catus [1]
  ID50: Increased heart rate at 3umol/kg

## COc1ccc2c(c1OC)CC(N(C)C)C2 (configuration not stated)
Dopamine receptor [2]
  IC50: 2300 µM
Dopamine receptor [3]
  IC50: 100 µM
Felis catus [1]
  ID50: inactive

## CNC1Cc2ccc(O)c(O)c2C1 (configuration not stated)
Felis catus [1]
  ID50: Increased heart rate at 3umol/kg

## CC(C)NC1Cc2ccc(O)c(O)c2C1 (configuration not stated)
Felis catus [1]
  ID50: inactive

## CCNC1Cc2ccc(OC)c(OC)c2C1 (configuration not stated)
Felis catus [1]
  ID50: inactive

## CNC1Cc2cc(O)c(O)cc2C1
Felis catus [1]
  ID50: Increased heart rate at 3umol/kg

## NC1Cc2ccc(O)c(O)c2C1 (configuration not stated)
Felis catus [1]
  ID50: Increased heart rate at 3umol/kg

## CCN(CC)C1Cc2cc(OC)c(OC)cc2C1
Felis catus [1]
  ID50: inactive

## Br.CCN(CC)C1Cc2cc(O)c(O)cc2C1
Dopamine receptor [3]
  IC50: 246 µM
Felis catus [1]
  ID50: Increased heart rate

## Br.CCCN(CCC)C1Cc2ccc(O)c(O)c2C1 (configuration not stated)
Felis catus [6]
  ED50: 0.02 µmol/kg
Dopamine receptor [2]
  IC50: 10 µM
Dopamine receptor [3]
  IC50: 53.86 µM
[7]
  Potency ratio: 1.24

## COc1cc2c(cc1OC)CC(N)C2
Felis catus [1]
  ID50: inactive

## Br.CCN(CC)C1Cc2ccc(OC)c(OC)c2C1 (configuration not stated)
Dopamine receptor [2]
  IC50: 1660 µM
Dopamine receptor [3]
  IC50: 29 µM
Felis catus [1]
  ID50: inactive

## CC(C)N(C)C1Cc2cc(O)c(O)cc2C1
Felis catus [1]
  ID50: Increased heart rate at 3umol/kg

## COc1ccc2c(c1OC)CC(NC(C)C)C2 (configuration not stated)
Felis catus [1]
  ID50: inactive

## NCCc1ccc(O)c(O)c1 [DOPAMINE]
Felis catus [5]
  ED50: 0.105 µmol/kg

## COc1cc2c(cc1OC)CC(NC(C)C)C2
Felis catus [1]
  ID50: inactive

## Br.CCN(CC)C1Cc2ccc(O)c(O)c2C1 (configuration not stated)
Felis catus [6]
  ED50: 0.05 µmol/kg
Dopamine receptor [2]
  IC50: 39 µM
Dopamine receptor [3]
  IC50: 220 µM
[7]
  Potency ratio: 0.26

## CCNC1Cc2ccc(O)c(O)c2C1 (configuration not stated)
Felis catus [5]
  ED50: > 1 µmol/kg

## COc1ccc2c(c1OC)CC(N)C2 (configuration not stated)
Felis catus [1]
  ID50: inactive

## CNC1Cc2cc(OC)c(OC)cc2C1
Felis catus [1]
  ID50: inactive

## Br.CN(C)C1Cc2ccc(O)c(O)c2C1 (configuration not stated)
Dopamine receptor [8]
  IC50: 10 µM
Felis catus [1]
  ID50: Increased heart rate
Dopamine receptor [9]
  IC50: 91 µM

## CCCNC1Cc2ccc(OC)c(OC)c2C1.Cl (configuration not stated)
Dopamine receptor [2]
  IC50: 51000 µM
Dopamine receptor [3]
  IC50: 105 µM
Felis catus [1]
  ID50: inactive

## Br.CN(C)C1Cc2cc(O)c(O)cc2C1
Dopamine receptor [2]
  IC50: 6 µM
Dopamine receptor [3]
  IC50: 104 µM
Felis catus [1]
  ID50: Increased heart rate

## COc1cc2c(cc1OC)CC(N(C)C)C2.Cl
Dopamine receptor [2]
  IC50: 400 µM
Dopamine receptor [3]
  IC50: 50 µM
Felis catus [1]
  ID50: inactive

## CCCNC1Cc2ccc(O)c(O)c2C1 (configuration not stated)
Felis catus [1]
  ID50: inactive

## CC(C)NC1Cc2cc(O)c(O)cc2C1
Felis catus [1]
  ID50: Increased heart rate at 3umol/kg

## CN1CCc2cccc3c2[C@H]1Cc1ccc(O)c(O)c1-3 [APOMORPHINE]
Felis catus [5]
  ED50: 0.022 µmol/kg
Canis familiaris
  ED50: 0.07 mg/kg

## CCCN(CCC)C1Cc2cc(OC)c(OC)cc2C1.Cl
Dopamine receptor [3]
  IC50: 10.4 µM
Felis catus [1]
  ID50: inactive

## CNC1Cc2ccc(OC)c(OC)c2C1 (configuration not stated)
Felis catus [1]
  ID50: inactive
